Structures are written as SMILES. ± gives the expanded uncertainty stated by the source.

The conditions of this data set: 101.33 kPa, Liquid, Vibrating tube method.

As for `CCCCCC` [hexane], the mass density is listed as 659.4 ± 4.1 kg/m3 (293.15 K); 654.76 ± 4 kg/m3 (298.15 K); 650.21 ± 4 kg/m3 (303.15 K); 645.43 ± 4 kg/m3 (308.15 K); 640.75 ± 4 kg/m3 (313.15 K).
